Test results: patent publication US20110136193A1, “METHOD FOR PRODUCING BUTANOL USING EXTRACTIVE FERMENTATION WITH OSMOLYTE ADDITION” (BUTAMAX(TM) ADVANCED BIOFUELS LLC, priority 2009, published 2011)

B1: sadB: butanol dehydrogenase from Achromobacter xylosoxidans (protein SEQ ID NO: 10), expressed in E. coli Mach 1 cells (protein)
chain: MKALVYHGDHKISLEDKPKPTLQKPTDVVVRVLKTTICGTDLGIYKGKNPEVADGRILGHEGVGVIEEVGESVTQFKKGDKVLISCVTSCGSCDYCKKQLYSHCRDGGWILGYMIDGVQAEYVRIPHADNSLYKIPQTIDDEIAVLLSDILPTGHEIGVQYGNVQPGDAVAIVGAGPVGMSVLLTAQFYSPSTIIVIDMDENRLQLAKELGATHTINSGTENVVEAVHRIAAEGVDVAIEAVGIPATWDICQEIVKPGAHIANVGVHGVKVDFEIQKLWIKNLTITTGLVNTNTTPMLMKVASTDKLPLKKMITHRFELAEIEHAYQVFLNGAKEKAMKIILSNAGAA
modifications: Achromobacter xyloxidans

Key:
[1] = Partition coefficient (Kp) of isobutanol between oleyl alcohol extractant and sucrose-supplemented basal fermentation medium; type: physicochemical; settings: oleyl alcohol / BFM, 30° C.
Method: The purpose of this Example was to evaluate the effect of sucrose concentrations in the fermentation medium on the partition coefficient (Kp) of isobutanol when oleyl alcohol was used as the extractant. The basal fermentation medium (BFM) typically used in E. coli fermentations was used as the fermentation medium in this Example.
The following experimental procedure was used to generate the data in Table 3. In these Kp measurement experiments, a specified amount of sucrose was added as an osmolyte to the basal fermentation medium. To 30 mL of the sucrose-supplemented BFM, 10 mL of isobutanol rich oleyl alcohol (OA) extractant containing 168 g/L of isobutanol was added and mixed vigorously for 4 and 8 hours at 30° C. with shaking at 250 rpm in a table top shaker (Innova 4230, New Brunswick scientific, Edison, N.J.) to reach equilibrium between the two phases. The aqueous and organic phases in each flask were separated by decantation. The aqueous phase was centrifuged (2 minutes on 13,000 rpm with an Eppendorf centrifuge model 5415R) to remove residual extractant phase and the supernatant analyzed for glucose and isobutanol by HPLC.
Partition coefficients (Kp) for isobutanol distribution between the organic and aqueous phases were calculated from the known amount of isobutanol added to the flask and the isobutanol concentration data measured in the aqueous phase. The concentration of isobutanol in the extractant phase was determined by mass balance. The partition coefficient was determined as the ratio of isobutanol concentration in the organic and the aqueous phase, i.e., Kp=[Isobutanol]Organic phase/[isobutanol]Aqueous phase. Each data point corresponding to a specified level of sucrose as shown in Table 3 was repeated twice and values for Kp reported as the average of the two flasks.

[2] = Kp of isobutanol in an oleyl alcohol/aqueous system (general statement); type: physicochemical; settings: no added osmolyte
Excerpt: Addition of organic extractants like oleyl alcohol into the fermentor during the production stage extracts butanol from the aqueous phase which alleviates its inhibitory effect on the microorganism resulting in higher rate and titer of isobutanol fermentation. Fermentation rate in this two phase system also slows down once the aqueous phase concentration of isobutanol reaches an inhibitory threshold level. In the presence of the extractant (oleyl alcohol) in the fermentor, the aqueous concentration of isobutanol is dictated by the partitioning coefficient (Kp) of isobutanol between the two phases. In the case of an oleyl alcohol/aqueous system, Kp is in the range of 3.5-4.5. A significant increase in isobutanol rate and titer can be achieved if Kp for isobutanol can be increased during fermentation such that the aqueous concentration of isobutanol drops below the inhibitory threshold level.

[3] = Activity of the enzyme expressed from the sadB gene in cell-free extracts; type: biochemical; settings: cell-free extracts of E. coli Mach1/pTrc99a::sadB; isobutyraldehyde as the standard
Method: The sadB coding region was then cloned into the vector pTrc99a (Amann et al., Gene 69: 301-315, 1988). The pCR4Blunt::sadB was digested with EcoRI, releasing the sadB fragment, which was ligated with EcoRI-digested pTrc99a to generate pTrc99a::sadB. This plasmid was transformed into E. coli Mach 1 cells and the resulting transformant was named Mach1/pTrc99a::sadB. The activity of the enzyme expressed from the sadB gene in these cells was determined to be 3.5 mmol/min/mg protein in cell-free extracts when analyzed using isobutyraldehyde as the standard.

Molecule	Kp ([1]; sucrose added 0 moles/L, total sugars 0.17 moles/L)	Kp ([1]; sucrose added 0.03 moles/L, total sugars 0.20 moles/L)	Kp ([1]; sucrose added 0.09 moles/L, total sugars 0.26 moles/L)	Kp ([1]; sucrose added 0.17 moles/L, total sugars 0.34 moles/L)	Kp ([1]; sucrose added 0.26 moles/L, total sugars 0.43 moles/L)	Kp ([1]; sucrose added 0.33 moles/L, total sugars 0.50 moles/L)	Kp ([1]; sucrose added 0.51 moles/L, total sugars 0.68 moles/L)	Kp ([1]; sucrose added 0.67 moles/L, total sugars 0.84 moles/L)	Kp ([1]; sucrose added 1.00 moles/L, total sugars 1.17 moles/L)	Kp ([1]; sucrose added 1.33 moles/L, total sugars 1.50 moles/L)	Kp ([1]; sucrose added 2.00 moles/L, total sugars 2.17 moles/L)	partitioning coefficient (Kp) of isobutanol between the two phases [2]	activity of the enzyme expressed from the sadB gene [3]
CC(C)CO [isobutanol]	4.35	4.44	4.41	4.60	4.69	5.09	5.21	5.85	6.85	7.77	10.69	3.5-4.5	
B1													3.5 mmol/min/mg protein
